Experimental data taken from patent US6358293B1, “Methods for rendering high concentrations of manganese safe for plant growth and formulations for same” (The Hampshire Chemical Corporation, priority 1999, dated 2002).

Assays:
New Guinea Impatiens [1] = assay: Growth promotion versus conventionally cultured and single-additive controls; format: in vivo
Corn = assay: Effective foliar application doses; format: in vivo; details: 1 to 4 ml per plant
Protocol: (§1) The following are exemplary ranges of effective foliar application doses based on 1 to 4 ml per plant.

New Guinea Impatiens [2] = assay: Effective foliar application doses; format: in vivo; details: 1 to 4 ml per plant
Protocol: as §1

Geranium [3] = assay: Growth promotion versus conventionally cultured and single-additive controls; format: in vivo
Coleus [4] = assay: as above; format: in vivo
Geranium [5] = assay: Effective root application doses; format: in vivo; details: 10 ml per plant
Protocol: (§2) The following are exemplary ranges of effective root application doses based on 10 ml per plant.

Coleus [6] = assay: Effective root application doses; format: in vivo; details: 10 ml per plant
Protocol: as §2

Cabbage = assay: Effective root application doses; format: in vivo; details: 10 ml per plant
Protocol: as §2

plants = details: conventional conditions of plant culture, especially under acidic conditions; cited from earlier work

Row | Compound | effect of additive on plant growth (New Guinea Impatiens [1]) | effective foliar application dose, MeG (Corn; MeG applied with Mn) [mM] | effective foliar application dose, MeG (New Guinea Impatiens [2]; MeG applied with Mn) [mM] | effect of additive on plant growth (Geranium [3]) | effect of additive on plant growth (Coleus [4]) | effective root application dose, MeG (Geranium [5]; MeG applied with Mn) [mM] | effective root application dose, MeG (Coleus [6]; MeG applied with Mn) [mM] | effective root application dose, MeG (Cabbage; MeG applied with Mn) [mM] | concentration at which manganese is phytotoxic to plants (plants) | effective foliar application dose, Mn (Corn; Mn applied with MeG) [ppm] | effective foliar application dose, Mn (New Guinea Impatiens [2]; Mn applied with MeG) [ppm] | effective root application dose, Mn (Geranium [5]; Mn applied with MeG) [ppm] | effective root application dose, Mn (Coleus [6]; Mn applied with MeG) [ppm] | effective root application dose, Mn (Cabbage; Mn applied with MeG) [ppm]
1 | CO[C@H]1OC(CO)[C@H](O)[C@@H](O)[C@@H]1O (some centres unmarked) [MeG, methyl glucoside] | retarded growth | 5 to 25 | 200 to 500 | retarded growth | retarded growth | 10 to 100 | 5 to 50 | 10 to 30 | – | – | – | – | – | –
2 | [Mn+2] [Mn, manganese] | phytotoxic | – | – | phytotoxic | phytotoxic | – | – | – | greater than 500 ppb | 10 to 25 | 10 to 25 | 2 to 15 | 2 to 7 | 2 to 15
